# Assay results reported in US20070185118A1, “Use of methylene amide derivatives in cardiovascular disorders” (APPLIED RESEARCH SYSTEMS ARS HOLDING N.V., priority 2004, published 2007).
# Legend:
# [1] = tested on: mesenteric arteries of normal mice; assay: Flow-mediated dilatation of isolated mesenteric arteries from normal (sham-operated) mice; assay type: cell-based, C57BL6 mice; settings: 10^-5 M, compared with the roughly abolished response in CHF arteries (FIG. 1)
# Procedure: The flow-mediated dilatation response in a normal mouse (open circles) is compared to the flow-mediated dilatation response of mesenteric arteries in either normal mouse subjected to an inhibitor of NO synthesis (left, black circles) or in a mouse wherein chronic heart failure (CHF) has been induced as described in Example 1 (right, black circles).
# The development of heart failure is assessed by echocardiography in the closed chest state 7 days and 2 months after coronary ligation. Sham-operated (normal) mice are subjected to the same protocol except that the artery is not be ligated. Six mice are present in each group and mice that survived myocardial infarction are further used in the study.
# After two months, the mice is anesthetized and subjected to laparotomy (incision into the abdominal cavity).
# A portion of the mesenteric artery (diameter 250-350 μm) is carefully isolated under a dissection microscope, and a 1.5to 2.0-mm length segment is cannulated on both ends, transferred to an arteriograph (Living Systems Instrumentation) and pressurized to 60 mm Hg.
# (§1) Flow-mediated vasodilatation (FMD), i.e. changes in vessel diameter in response to stepwise increases in intra-luminal flow (0-200 μl/min) is evaluated after preconstriction by phenylephrine (incubated 2min at 10^-5 M) after a contraction plateau is reached, at baseline and after incubation with a compound of the invention: […]
# [2] = tested on: mesenteric arteries of mice with chronic heart failure; assay: Flow-mediated dilatation of isolated mesenteric arteries from mice with chronic heart failure (coronary artery occlusion model); assay type: cell-based, C57BL6 mice; settings: CHF mouse arteries, in-vitro incubation 30 min, preconstriction by phenylephrine
# Excerpt: Experimentally, flow-induced release of NO in small peripheral arteries (i.e. arteries that contribute to the increased resistance in heart failure) may be assessed in vitro in isolated perfused, pressurized arteries such as small (<300 μm diameter) mesenteric or hindquarter arteries.
# Chronic heart failure is induced in C57BL6 mice (n=12) by coronary ligation according to the model developed in rats by Varin et al,1999, Circulation, 99, 2951-2957.
# Mice are anesthetized, ventilated and a thoracotomy (incision of the pleural cavity) is performed. The left main coronary artery is ligated close to its origin. This procedure leads to the development of an infarct involving around 40% of the left ventricle. Post-infarction mortality in this mouse model is around 40-50%.
# The development of heart failure is assessed by echocardiography in the closed chest state 7 days and 2 months after coronary ligation. Sham-operated (normal) mice are subjected to the same protocol except that the artery is not be ligated. […]
# as §1
Compound,inhibition of the flow-mediated dilatation response [1],"flow-mediated dilatation (% dilatation) restoration ([2]; 10^-5 M in Krebs buffer, flow 0-200 μl/min (FIG. 2 left))","flow-mediated dilatation (% dilatation) restoration ([2]; 10^-6 M in Krebs buffer, flow 0-200 μl/min (FIG. 2 right))"
N=C(NCCC[C@H](N)C(=O)O)N[N+](=O)[O-] [NG-nitro-L-arginine],inhibition of the dilatation response is similar,–,–
"CCCCCCc1ccc(C#Cc2ccc(CN(Cc3ccc(C(F)(F)F)cc3)C(=O)C(=O)O)cc2)cc1 [Compound 1, {{4-[(4-hexylphenyl)ethynyl]benzyl}[4-(trifluoromethyl)benzyl]amino}(oxo)acetic acid]",–,restored to the normal level,restored to the normal level
